According to patent publication US10668040B2, “Treatment of urea cycle disorders in neonates and infants” (Horizon Therapeutics, LLC, priority 2017, dated 2020):

Legend:
Type in all cases: in vivo, human
[1] = Pharmacokinetics of HPN-100 and NaPBA, study HPN-100-005; conditions: HPN-100-005 (N = 11)
Excerpt: (§1) The pharmacokinetics of the short term studies can be summarized as follows. Mean exposure levels of HPN-100 metabolites PBA, PAA, and PAGN after doses of HPN-100 and NaPBA with meals (TID) in pediatric (29 days to 17 years of age) UCD patients in HPN-100-005 and HPN-100-012 studies are summarized below. The mean exposure to PBA, the parent metabolite, and mean exposure to PAGN, the terminal metabolite, show no systematic variation across age groups, while PAA exposure tended to decrease with increasing age, a finding consistent with those from population PK modeling which indicate that the rate of clearance/metabolism of PAA varies directly with body size. While systemic metabolite exposure, assessed as peak plasma concentration (Cmax) or AUC, is generally similar for HPN-100 and NaPBA, the minimum concentration (Cmin-ss) was higher—and/or percent-fluctuation less—for plasma PAGN, a finding consistent with slower gastrointestinal absorption of PBA when administered orally as HPN-100.

[2] = system: pediatric patients with UCDs; test: HPN-100-012 switch-over study: 24-hour blood ammonia on HPN-100 vs NaPBA
Excerpt: HPN-100-012 was an open-label, fixed sequence, switch-over study of the safety, PK and efficacy of HPN-100 compared to NaPBA in patients with UCDs, with a 12-month safety extension part. […] After review of all the safety data by the DSMB, 8 additional subjects were enrolled in the study after the switch-over phase was completed.

[3] = system: pediatric UCD patients; test: Pooled ammonia analyses from short term studies
Method: Pooled ammonia analyses from short term studies were also conducted.

[4] = Pharmacokinetics of HPN-100 and NaPBA, study HPN-100-012; conditions: HPN-100-012 (N = 15)
Excerpt: as §1

## O=C([O-])CCCc1ccccc1.[Na+] [NaPBA, sodium phenylbutyrate]
[1]; mean (CV %)
  Plasma PAA % Fluctuation: 3931 (85.1) %
  Plasma PAA AUC0-24: 773 (73.3) μg · h/mL
  Plasma PAA CLss/F: 34391 (162.5) mL/min
  Plasma PAA Cmax-ss: 75.1 (64.4) μg/mL
  Plasma PAA Cmin-ss: 0.674 (130.5) μg/mL
  Plasma PAGN % Fluctuation: 1917 (54.8) %
  Plasma PAGN AUC0-24: 1015 (44.7) μg · h/mL
  Plasma PAGN CLss/F: 19739 (44.3) mL/min
  Plasma PAGN Cmax-ss: 74.8 (37.3) μg/mL
  Plasma PAGN Cmin-ss: 4.6 (66.4) μg/mL
  Plasma PBA % Fluctuation: 1979 (123.7) %
  Plasma PBA AUC0-24: 236 (105.2) μg · h/mL
  Plasma PBA CLss/F: 145463 (123.4) mL/min
  Plasma PBA Cmax-ss: 37.4 (101.6) μg/mL
  Plasma PBA Cmin-ss: 0.37 (171.3) μg/mL
  U-PAGN Ae: 12512426 (51.3) μg
  U-PAGN Ae0-12: 7098020 (47.5) μg
  U-PAGN Ae12-24: 5414406 (71.9) μg
  U-PAGN Fe0-12: 39.6 (30.0) %
  U-PAGN Fe12-24: 29.3 (52.8) %
  U-PAGN Fe % dose: 69.0 (23.9) %
[1]; median
  Plasma PAA Tmax-ss: 12.00 h
  Plasma PAGN Tmax-ss: 12.00 h
  Plasma PBA Tmax-ss: 12.00 h
[2]; 12-hour time point, HPN-100 Day 10, NaPBA Day 1
  Mean blood ammonia: 41.03 µmol/L
[2]; 24-hour time point, NaPBA Day 1
  Mean blood ammonia: 34.66 µmol/L
[2]; pre-dose and 24 hours post dose
  Mean blood ammonia levels following an overnight fast: normal
[3]
  abnormal ammonia values: 35%
[4]; mean (CV %)
  Plasma PAA % Fluctuation: 1289 (102.8) %
  Plasma PAA AUC0-24: 1458 (211.3) μg · h/mL
  Plasma PAA CLss/F: 94249 (243.7) mL/min
  Plasma PAA Cmax-ss: 98.0 (152.1) μg/mL
  Plasma PAA Cmin-ss: 49.2 (287.2) μg/mL
  Plasma PAGN % Fluctuation: 1459 (74.1) %
  Plasma PAGN AUC0-24: 946 (75.5) μg · h/mL
  Plasma PAGN CLss/F: 14360 (93.0) mL/min
  Plasma PAGN Cmax-ss: 74.4 (61.3) μg/mL
  Plasma PAGN Cmin-ss: 17.7 (159.6) μg/mL
  Plasma PBA % Fluctuation: 5102 (75.9) %
  Plasma PBA AUC0-24: 483 (146.0) μg · h/mL
  Plasma PBA CLss/F: 112093 (136.4) mL/min
  Plasma PBA Cmax-ss: 60.4 (128.3) μg/mL
  Plasma PBA Cmin-ss: 0.993 (227.3) μg/mL
[4]; median
  Plasma PAA Tmax-ss: 8.00 h
  Plasma PAGN Tmax-ss: 8.00 h
  Plasma PBA Tmax-ss: 8.30 h
